{
  "source": "the NIST ThermoML archive (doi:10.1007/s10765-007-0186-y)",
  "assay": "molar heat capacity at constant pressure",
  "details": "Gas, Flow calorimetry",
  "note": "± gives the expanded uncertainty stated by the source.",
  "data": [
    {"smiles": "CC(F)(F)F", "note": "[1,1,1-trifluoroethane]", "values": [
      {"measurement": "molar heat capacity at constant pressure", "setting": "311.15 K, 1600 kPa", "value": "120.18 ± 1.7", "unit": "J/K/mol"},
      {"measurement": "molar heat capacity at constant pressure", "setting": "317.15 K, 1800 kPa", "value": "125.89 ± 2.9", "unit": "J/K/mol"},
      {"measurement": "molar heat capacity at constant pressure", "setting": "318.15 K, 1600 kPa", "value": "111.77 ± 2.5", "unit": "J/K/mol"},
      {"measurement": "molar heat capacity at constant pressure", "setting": "318.15 K, 2000 kPa", "value": "139.51 ± 3.1", "unit": "J/K/mol"},
      {"measurement": "molar heat capacity at constant pressure", "setting": "324.15 K, 2200 kPa", "value": "145.31 ± 3.2", "unit": "J/K/mol"},
      {"measurement": "molar heat capacity at constant pressure", "setting": "326.15 K, 2400 kPa", "value": "161.69 ± 4.3", "unit": "J/K/mol"},
      {"measurement": "molar heat capacity at constant pressure", "setting": "327.15 K, 2400 kPa", "value": "160.77 ± 2.4", "unit": "J/K/mol"},
      {"measurement": "molar heat capacity at constant pressure", "setting": "338.15 K, 2400 kPa", "value": "130.6 ± 5.4", "unit": "J/K/mol"},
      {"measurement": "molar heat capacity at constant pressure", "setting": "341.15 K, 2200 kPa", "value": "117.24 ± 3.7", "unit": "J/K/mol"},
      {"measurement": "molar heat capacity at constant pressure", "setting": "343.15 K, 2400 kPa", "value": "124.8 ± 3.5", "unit": "J/K/mol"}
    ]}
  ]
}
